Assay results: patent publication US6352958B1, “Cycloimido-substituted benzofused heterocyclic herbicides” (FMC Corporation, priority 1997, dated 2002)

Legend:
Format in all cases: in vivo
[1] = test system: soybean (Glycine max var. Winchester); assay: Postemergence herbicidal activity, soybean; conditions: rate of application 0.3 Kg/Ha, rated after 12-17 days
[2] = test system: field corn (Zea mays var. Pioneer 3732); assay: Preemergence herbicidal activity, corn; conditions: Rate of Application 0.3 Kg/Ha, examined after 12-17 days
[3] = test system: blackgrass (Aloepecurus myosuroides); assay: Preemergence herbicidal activity, blackgrass; conditions: Rate of Application 0.3 Kg/Ha, examined after 12-17 days
[4] = test system: green foxtail (Setaria viridis); assay: Postemergence herbicidal activity, green foxtail; conditions: rate of application 0.3 Kg/Ha, rated after 12-17 days
[5] = test system: Johnsongrass (Sorghum halepense); assay: Preemergence herbicidal activity, johnsongrass; conditions: Rate of Application 0.3 Kg/Ha, examined after 12-17 days
[6] = test system: common cocklebur (Xanthium strumarium L.); assay: Postemergence herbicidal activity, cocklebur; conditions: rate of application 0.3 Kg/Ha, rated after 12-17 days
[7] = test system: morningglory (Ipomea lacunosa or Ipomea hederacea); assay: Preemergence herbicidal activity, morningglory; conditions: Rate of Application 0.3 Kg/Ha, examined after 12-17 days
[8] = test system: common cocklebur (Xanthium strumarium L.); assay: Preemergence herbicidal activity, cocklebur; conditions: Rate of Application 0.3 Kg/Ha, examined after 12-17 days
[9] = test system: wheat (Triticum aestivum var. Lew); assay: Postemergence herbicidal activity, wheat; conditions: rate of application 0.3 Kg/Ha, rated after 12-17 days
[10] = test system: velvetleaf (Abutilon theophrasti); assay: Postemergence herbicidal activity, velvetleaf; conditions: rate of application 0.3 Kg/Ha, rated after 12-17 days
[11] = test system: green foxtail (Setaria viridis); assay: Preemergence herbicidal activity, green foxtail; conditions: Rate of Application 0.3 Kg/Ha, examined after 12-17 days
[12] = test system: blackgrass (Aloepecurus myosuroides); assay: Postemergence herbicidal activity, blackgrass; conditions: rate of application 0.3 Kg/Ha, rated after 12-17 days
[13] = test system: common chickweed (Stellaria media); assay: Preemergence herbicidal activity, chickweed; conditions: Rate of Application 0.3 Kg/Ha, examined after 12-17 days
[14] = test system: field corn (Zea mays var. Pioneer 3732); assay: Postemergence herbicidal activity, corn; conditions: rate of application 0.3 Kg/Ha, rated after 12-17 days
[15] = test system: wheat (Triticum aestivum var. Lew); assay: Preemergence herbicidal activity, wheat; conditions: Rate of Application 0.3 Kg/Ha, examined after 12-17 days
[16] = test system: Johnsongrass (Sorghum halepense); assay: Postemergence herbicidal activity, johnsongrass; conditions: rate of application 0.3 Kg/Ha, rated after 12-17 days
[17] = test system: morningglory (Ipomea lacunosa or Ipomea hederacea); assay: Postemergence herbicidal activity, morningglory; conditions: rate of application 0.3 Kg/Ha, rated after 12-17 days
[18] = test system: common chickweed (Stellaria media); assay: Postemergence herbicidal activity, chickweed; conditions: rate of application 0.3 Kg/Ha, rated after 12-17 days
[19] = test system: velvetleaf (Abutilon theophrasti); assay: Preemergence herbicidal activity, velvetleaf; conditions: Rate of Application 0.3 Kg/Ha, examined after 12-17 days
[20] = test system: soybean (Glycine max var. Winchester); assay: Preemergence herbicidal activity, soybean; conditions: Rate of Application 0.3 Kg/Ha, examined after 12-17 days

Cc1nc2c(-n3c(=O)cc(C(F)(F)F)n(C)c3=O)c(F)cc(Cl)c2o1 [Compound 1]
Postemergence herbicidal activity (% control) SOY [1]: 95% | PREEMERGENCE HERBICIDAL ACTIVITY (% CONTROL) CRN [2]: 90% | PREEMERGENCE HERBICIDAL ACTIVITY (% CONTROL) ALOMY [3]: 90% | Postemergence herbicidal activity (% control) SETVI [4]: 80% | PREEMERGENCE HERBICIDAL ACTIVITY (% CONTROL) SORHA [5]: 95% | Postemergence herbicidal activity (% control) XANPE [6]: 100% | PREEMERGENCE HERBICIDAL ACTIVITY (% CONTROL) IPOSS [7]: 100% | PREEMERGENCE HERBICIDAL ACTIVITY (% CONTROL) XANPE [8]: 100% | Postemergence herbicidal activity (% control) WHT [9]: 65% | Postemergence herbicidal activity (% control) ABUTH [10]: 100% | PREEMERGENCE HERBICIDAL ACTIVITY (% CONTROL) SETVI [11]: 100% | Postemergence herbicidal activity (% control) ALOMY [12]: 70% | PREEMERGENCE HERBICIDAL ACTIVITY (% CONTROL) STEME [13]: 100% | Postemergence herbicidal activity (% control) CRN [14]: 80% | PREEMERGENCE HERBICIDAL ACTIVITY (% CONTROL) WHT [15]: 85% | Postemergence herbicidal activity (% control) SORHA [16]: 80% | Postemergence herbicidal activity (% control) IPOSS [17]: 100% | Postemergence herbicidal activity (% control) STEME [18]: 90% | PREEMERGENCE HERBICIDAL ACTIVITY (% CONTROL) ABUTH [19]: 100% | PREEMERGENCE HERBICIDAL ACTIVITY (% CONTROL) SOY [20]: 100%

Cc1nc2c(-n3c(=O)cc(C(F)(F)F)n(C)c3=O)c(F)cc(Br)c2o1 [Compound 16]
Postemergence herbicidal activity (% control) SOY [1]: 95% | PREEMERGENCE HERBICIDAL ACTIVITY (% CONTROL) CRN [2]: 90% | PREEMERGENCE HERBICIDAL ACTIVITY (% CONTROL) ALOMY [3]: 80% | Postemergence herbicidal activity (% control) SETVI [4]: 80% | PREEMERGENCE HERBICIDAL ACTIVITY (% CONTROL) SORHA [5]: 95% | Postemergence herbicidal activity (% control) XANPE [6]: 95% | PREEMERGENCE HERBICIDAL ACTIVITY (% CONTROL) IPOSS [7]: 100% | PREEMERGENCE HERBICIDAL ACTIVITY (% CONTROL) XANPE [8]: 90% | Postemergence herbicidal activity (% control) WHT [9]: 60% | Postemergence herbicidal activity (% control) ABUTH [10]: 100% | PREEMERGENCE HERBICIDAL ACTIVITY (% CONTROL) SETVI [11]: 100% | Postemergence herbicidal activity (% control) ALOMY [12]: 70% | PREEMERGENCE HERBICIDAL ACTIVITY (% CONTROL) STEME [13]: 100% | Postemergence herbicidal activity (% control) CRN [14]: 80% | PREEMERGENCE HERBICIDAL ACTIVITY (% CONTROL) WHT [15]: 70% | Postemergence herbicidal activity (% control) SORHA [16]: 80% | Postemergence herbicidal activity (% control) IPOSS [17]: 100% | Postemergence herbicidal activity (% control) STEME [18]: 70% | PREEMERGENCE HERBICIDAL ACTIVITY (% CONTROL) ABUTH [19]: 100% | PREEMERGENCE HERBICIDAL ACTIVITY (% CONTROL) SOY [20]: 100%

CCc1nc2c(-n3c(=O)cc(C(F)(F)F)n(C)c3=O)c(F)cc(Cl)c2o1 [Compound 25]
Postemergence herbicidal activity (% control) SOY [1]: 100% | PREEMERGENCE HERBICIDAL ACTIVITY (% CONTROL) CRN [2]: 100% | PREEMERGENCE HERBICIDAL ACTIVITY (% CONTROL) ALOMY [3]: 90% | Postemergence herbicidal activity (% control) SETVI [4]: 100% | PREEMERGENCE HERBICIDAL ACTIVITY (% CONTROL) SORHA [5]: 100% | Postemergence herbicidal activity (% control) XANPE [6]: 100% | PREEMERGENCE HERBICIDAL ACTIVITY (% CONTROL) IPOSS [7]: 100% | PREEMERGENCE HERBICIDAL ACTIVITY (% CONTROL) XANPE [8]: 95% | Postemergence herbicidal activity (% control) WHT [9]: 80% | Postemergence herbicidal activity (% control) ABUTH [10]: 100% | PREEMERGENCE HERBICIDAL ACTIVITY (% CONTROL) SETVI [11]: 100% | Postemergence herbicidal activity (% control) ALOMY [12]: 80% | PREEMERGENCE HERBICIDAL ACTIVITY (% CONTROL) STEME [13]: 100% | Postemergence herbicidal activity (% control) CRN [14]: 90% | PREEMERGENCE HERBICIDAL ACTIVITY (% CONTROL) WHT [15]: 100% | Postemergence herbicidal activity (% control) SORHA [16]: 90% | Postemergence herbicidal activity (% control) IPOSS [17]: 100% | Postemergence herbicidal activity (% control) STEME [18]: 100% | PREEMERGENCE HERBICIDAL ACTIVITY (% CONTROL) ABUTH [19]: 100% | PREEMERGENCE HERBICIDAL ACTIVITY (% CONTROL) SOY [20]: 100%

CCCc1nc2c(-n3c(=O)cc(C(F)(F)F)n(C)c3=O)c(F)cc(Cl)c2o1 [Compound 26]
Postemergence herbicidal activity (% control) SOY [1]: 96% | PREEMERGENCE HERBICIDAL ACTIVITY (% CONTROL) CRN [2]: 90% | PREEMERGENCE HERBICIDAL ACTIVITY (% CONTROL) ALOMY [3]: 95% | Postemergence herbicidal activity (% control) SETVI [4]: 100% | PREEMERGENCE HERBICIDAL ACTIVITY (% CONTROL) SORHA [5]: 100% | Postemergence herbicidal activity (% control) XANPE [6]: 100% | PREEMERGENCE HERBICIDAL ACTIVITY (% CONTROL) IPOSS [7]: 100% | PREEMERGENCE HERBICIDAL ACTIVITY (% CONTROL) XANPE [8]: 100% | Postemergence herbicidal activity (% control) WHT [9]: 60% | Postemergence herbicidal activity (% control) ABUTH [10]: 100% | PREEMERGENCE HERBICIDAL ACTIVITY (% CONTROL) SETVI [11]: 100% | Postemergence herbicidal activity (% control) ALOMY [12]: 80% | PREEMERGENCE HERBICIDAL ACTIVITY (% CONTROL) STEME [13]: 100% | Postemergence herbicidal activity (% control) CRN [14]: 80% | PREEMERGENCE HERBICIDAL ACTIVITY (% CONTROL) WHT [15]: 90% | Postemergence herbicidal activity (% control) SORHA [16]: 80% | Postemergence herbicidal activity (% control) IPOSS [17]: 100% | Postemergence herbicidal activity (% control) STEME [18]: 80% | PREEMERGENCE HERBICIDAL ACTIVITY (% CONTROL) ABUTH [19]: 100% | PREEMERGENCE HERBICIDAL ACTIVITY (% CONTROL) SOY [20]: 100%

Cn1c(C(F)(F)F)cc(=O)n(-c2ccc(Cl)c3cc(-c4ccccc4)oc23)c1=O [Compound 264]
Postemergence herbicidal activity (% control) SOY [1]: 50% | PREEMERGENCE HERBICIDAL ACTIVITY (% CONTROL) CRN [2]: 10% | PREEMERGENCE HERBICIDAL ACTIVITY (% CONTROL) ALOMY [3]: 0% | PREEMERGENCE HERBICIDAL ACTIVITY (% CONTROL) SORHA [5]: 10% | Postemergence herbicidal activity (% control) XANPE [6]: 30% | PREEMERGENCE HERBICIDAL ACTIVITY (% CONTROL) IPOSS [7]: 0% | PREEMERGENCE HERBICIDAL ACTIVITY (% CONTROL) XANPE [8]: 30% | Postemergence herbicidal activity (% control) WHT [9]: 20% | Postemergence herbicidal activity (% control) ABUTH [10]: 40% | PREEMERGENCE HERBICIDAL ACTIVITY (% CONTROL) SETVI [11]: 10% | Postemergence herbicidal activity (% control) ALOMY [12]: 0% | PREEMERGENCE HERBICIDAL ACTIVITY (% CONTROL) STEME [13]: 20% | Postemergence herbicidal activity (% control) CRN [14]: 50% | PREEMERGENCE HERBICIDAL ACTIVITY (% CONTROL) WHT [15]: 0% | Postemergence herbicidal activity (% control) SORHA [16]: 20% | Postemergence herbicidal activity (% control) IPOSS [17]: 40% | Postemergence herbicidal activity (% control) STEME [18]: 0% | PREEMERGENCE HERBICIDAL ACTIVITY (% CONTROL) ABUTH [19]: 20% | PREEMERGENCE HERBICIDAL ACTIVITY (% CONTROL) SOY [20]: 0%
